Laboratory results from publication PMC2752443 (2009).

What was measured:
[1] = test system: theophylline-binding RNA aptamer (RNA, aptamer) GGCGAUACCAGCCGAAAGGCCCUUGGCAGCGUC; assay: 2D 1H-1H NMR ZZ-exchange, koff/kon; conditions: no Mg2+; 15 °C; from apparent rate constants
[2] = test system: theophylline-binding RNA aptamer (RNA, aptamer) GGCGAUACCAGCCGAAAGGCCCUUGGCAGCGUC; assay: 2D 1H-1H NMR ZZ-exchange; conditions: no Mg2+; 15 °C; apparent; slope of kf against free theophylline

Kd [1]: 2500 µM
kon [2]: 600 ± 57 M⁻¹ s⁻¹
Structure (SMILES): Cn1c(=O)c2[nH]cnc2n(C)c1=O
